In patent US5856535A, “Aminosterol ester compounds” (priority 1996, dated 1999):
In brackets after ≈: the same amount, converted by molar mass. Read-outs that look alike come from different tables or passages of the source.

Assays:
[1] = tested on: melanoma cells; experiment: MTT assay for cell number; type: cell-based; conditions: for IC50: read-out: MTT assay IC50; for minimal effective concentration: 48 h, Table II, read-out: Minimum Effective Concentration, MTT assay
Protocol: In Table V, several aminosterol esters show efficacy in killing melanoma cells in the MTT assay.
The MTT assay for cell number is performed as follows. Cells are counted on a hemocytometer and diluted to a concentration of approx. 10,000 cells/well (55,000 cells/ml×0.18 ml). Cells are then plated in a 96 well microtiter plate and allowed to attach overnight. The next day, compounds are serially diluted from 1000 to 15.6 μg/ml and run in duplicate. 20 μl of each dilution are transferred to the pre-seeded microtiter plates. The final concentrations are 100 to 1.56 μg/ml. The plates are then incubated for 48 hours at 37° C. in 5% CO2. After 48 hours, MTT solution is added. The plate is re-incubated for 4 hours. Readings are done by removing all but 30 μl of media and MTT solution and dissolving the formazan crystals with DMSO. The formazan is dissolved by mixing on a rotating plate at low speed for about 30 minutes. Absorbance of converted dye is measured at a wavelength of 560 nm with background subtraction at 630 nm. The percent survival is determined by a comparison between the mean absorbance of the duplicate test lanes and the growth control.

[2] = inhibition of MSI-1436 binding; conditions: 3H-MSI-1436 at 20 μg/mL
[3] = tested on: splenocytes; experiment: mitogen proliferation assay (splenocytes of treated mice, Con A); type: in vivo; conditions: for Rel. potency to MSI-1436, Mitogen Proliferation Assay: 10 mg/kg iv
Protocol: For the attached Tables, the mitogen proliferation assay was performed by treating mice (male or female) with various amounts of the aminosterol test compounds. Some time later (typically between 2 hours and 14 days), the mice are sacrificed and their spleens removed. Splenocytes are harvested and cultured in the presence of between 1-10 μg/ml of Con A (Sigma) for 48 hours. See James Morgan, "Monoclonal Antibody Production," Modern Methods in Pharmacology, pp. 29-67, eds., Spector and Back, 1988. This excerpt is entirely incorporated herein by reference. Cell proliferation is monitored either by direct cell counting or by measurement of the incorporation of radioactive thymidine.

[4] = tested on: Xenopus laevis Stages 59-60 tadpoles; experiment: tadpole assay; type: in vivo; conditions: 10 μg/ml where stated
[5] = tested on: chick embryo vitelline capillaries; experiment: chick embryo vitelline capillary regression assay; type: in vivo; design: key to Chick embryo vitelline capillary regression: +: Vascular reactivity; 0: No vascular reactivity; +/-: Equivocal reactivity; conditions: for Chick embryo vitelline capillary regression: 60 minutes
Protocol: Using the chick embryo vitelline capillaries assay, various aminosterol compounds were tested for their ability to induce capillary regression. Each compound was applied in 0.1 ml of 15% Ficol 400 and PBS onto the embryo, and vascular regression was assessed after 60 minutes. These tests were conducted by the chorioallantoic membrane anti-angiogenesis assay by applying the material to be assayed to 3 day old fertilized chick embryos in the manner described by Wilks et al., "Inhibition of Angiogenesis With Combination Angiostatic Steroids and Suramin," Radiation Biology, Vol. 60, Nos. 1/2, 1991, pp. 73-77, which article is entirely incorporated herein by reference.
The 3-day chick embryo consists of an embryonic disc from which numerous vessels emerge and return, forming a "figure 8"-shaped structure--the embryo in the center with vascular loops extending outward over both poles. […] Following a lag period of around 15 minutes, the constriction of continuity between capillary and secondary vessels, generally on the "venous" side, was observed. Continued pulsatile blood flow progressed, resulting in a "swelling" of the blind tube, followed by a pinching off of the remaining connection and formation of an enclosed vascular sac resembling a "blood island." This process progressed until only the largest vessels remained intact.

[6] = tested on: S. aureus; experiment: antibiotic activity, S. aureus; type: cell-based; conditions: Staphylococcus aureus

Q: With COC(=O)CCC(C)[C@H]1CCC2C3CC[C@@H]4C[C@H](NCCN)CC[C@]4(C)C3C[C@H](O)[C@@]21C (some centres unmarked) [drawing 109] as the compound, how does the IC50 ([1]; Tables III-V) read?
A: 2.4 mg/L (≈ 5.35 µM)

Q: With COC(=O)CCC(C)[C@H]1CCC2C3CC[C@H]4C[C@H](NCCCNCCCCNCCCN)CC[C@]4(C)C3CC[C@@]21C (some centres unmarked) [drawing 84] as the compound, how does the minimal effective concentration [1] read?
A: 6.8 µg/mL

Q: With COC(=O)CC[C@@H](C)[C@H]1CC[C@H]2[C@@H]3C[C@@H](O)[C@H]4C[C@@H](NCCCN5CCN(CCCN)CC5)CC[C@]4(C)[C@H]3CC[C@]12C [Compound 469] as the compound, how does the “% Inhib. of MSI-1436 Binding @ 100 μg/mL” value [2] read?
A: 110%

Q: What about the IC50 [1] of the same compound?
A: 2 mg/L (≈ 3.4 µM)

Q: And the “Rel. potency to MSI-1436, Mitogen Proliferation Assay” value [3]?
A: 1.6

Q: And the “potency in the mitogen proliferation assay (in words)” value ([3]; mouse, in vivo)?
A: higher potency in the mitogen proliferation assay than compound 1436

Q: With CC(CCC(=O)O)[C@H]1CCC2C3CC[C@H]4C[C@@H](NCCCNCCCCN)CC[C@]4(C)C3CC[C@@]21C (some centres unmarked) as the compound, how does the minimal effective concentration [1] read?
A: 13.8 µg/mL

Q: With COC(=O)CCC(C)[C@H]1CCC2C3CC[C@@H]4C[C@H](NCCN)CC[C@]4(C)C3C[C@H](O)[C@@]21C (some centres unmarked) [drawing 90] as the compound, how does the minimal effective concentration [1] read?
A: 2.4 µg/mL

Q: With COC(=O)CC[C@@H](C)[C@H]1CC[C@H]2[C@@H]3C[C@@H](O)[C@H]4C[C@@H](NCCN)CC[C@]4(C)[C@H]3CC[C@]12C [Compound 432] as the compound, how does the “effect on embryonic epithelium / epithelial shedding (in words)” value [4] read?
A: functionally similar to compound 1437

Q: With COC(=O)CCC(C)[C@H]1CCC2C3C(CC[C@@]21C)[C@@]1(C)CC[C@@H](NCCCNCCCCN)C[C@H]1C[C@H]3O (some centres unmarked) [drawing 116] as the compound, how does the “% Inhib. of MSI-1436 Binding @ 100 μg/mL” value [2] read?
A: 18%

Q: What about the IC50 ([1]; Tables III-V) of the same compound?
A: 12 mg/L (≈ 22.5 µM)

Q: What does the source list for COC(=O)CCC(C)[C@H]1CCC2C3CC[C@H]4C[C@H](NCCCNCCCCNCCCN)CC[C@]4(C)C3CC[C@@]21C (some centres unmarked) [drawing 118]?
A: % Inhib. of MSI-1436 Binding @ 100 μg/mL [2]: 49%; IC50 ([1]; Tables III-V): 13 mg/L (≈ 22.6 µM)

Q: Which minimal effective concentration [1] does the source give for COC(=O)CCC(C)[C@H]1CCC2C3C(CC[C@@]21C)[C@@]1(C)CC[C@@H](NCCN)C[C@H]1C[C@H]3O (some centres unmarked) [drawing 70] here?
A: 2.6 µg/mL

Q: For C[C@H](CCC(=O)O)[C@H]1CC[C@H]2[C@@H]3[C@H](O)C[C@@H]4C[C@@H](NCCN)CC[C@]4(C)[C@H]3CC[C@]12C [Compound 415], which “effect on vitelline capillaries (in words)” value ([5]; 3- to 5-day chick embryo) is on record?
A: especially active

Q: For CC(CCC(=O)O)[C@H]1CCC2C3C[C@@H](O)[C@H]4C[C@@H](NCCCNCCCCNCCCN)CC[C@]4(C)C3CC[C@@]21C (some centres unmarked), which “% Inhib. of MSI-1436 Binding @ 100 μg/mL” value [2] is on record?
A: -69%

Q: And the “Rel. potency to MSI-1436, Mitogen Proliferation Assay” value [3]?
A: 0.22

Q: Which results are given for COC(=O)CCC(C)[C@H]1CCC2C3C[C@@H](O)[C@H]4C[C@@H](NCCCNCCCCNCCCN)CC[C@]4(C)C3CC[C@@]21C (some centres unmarked)?
A: % Inhib. of MSI-1436 Binding @ 100 μg/mL [2]: 51%; MTT assay IC50 ([1]; Tables III-V): 14 mg/L; IC50 ([1]; Tables III-V): 10 mg/L (≈ 16.9 µM); Rel. potency to MSI-1436, Mitogen Proliferation Assay [3]: 0.43

Q: Which MIC [6] does the source give for COC(=O)CCC(C)[C@H]1CCC2C3C(CC[C@@]21C)[C@@]1(C)CC[C@H](NCCCNCCCCNCCCN)C[C@@H]1C[C@H]3O (some centres unmarked) [drawing 35] here?
A: 2 to 4 mg/L (≈ 3.38 to 6.77 µM)

Q: With COC(=O)CC[C@@H](C)[C@H]1CC[C@H]2[C@@H]3[C@H](O)C[C@@H]4C[C@@H](NCCN)CC[C@]4(C)[C@H]3CC[C@]12C [Compound 409] as the compound, how does the “effect on embryonic epithelium / epithelial shedding (in words)” value [4] read?
A: functionally similar to compound 1437

Q: Which “% Inhib. of MSI-1436 Binding @ 100 μg/mL” value [2] does the source give for COC(=O)CCC(C)[C@H]1CCC2C3C[C@@H](O)[C@H]4C[C@@H](NCCCNCCCCN)CC[C@]4(C)C3CC[C@@]21C (some centres unmarked) here?
A: 57%

Q: What about the IC50 ([1]; Tables III-V) of the same compound?
A: 12 mg/L (≈ 22.5 µM)

Q: With CC(C)CCC[C@@H](C)[C@H]1CC[C@H]2[C@@H]3CC[C@H]4C[C@@H](NCCCNCCCCN)CC[C@]4(C)[C@H]3CC[C@]12C [Compound 303] as the compound, how does the “Chick embryo vitelline capillary regression” value ([5]; 1 μg applied) read?
A: 0

Q: With COC(=O)CC[C@@H](C)[C@H]1CC[C@H]2[C@@H]3[C@H](O)C[C@H]4C[C@@H](NCCCNCCCCNCCCN)CC[C@]4(C)[C@H]3CC[C@]12C [Compound 396] as the compound, how does the “Chick embryo vitelline capillary regression” value ([5]; 0.001 μg applied) read?
A: 0

Q: What about the “Chick embryo vitelline capillary regression” value ([5]; 0.01 μg applied) of the same compound?
A: 0

Q: And the “Chick embryo vitelline capillary regression” value ([5]; 0.1 μg applied)?
A: 0
